Data published in patent US20250230193A1, “CYCLIC COMPOUND HAVING SELECTIVE KRAS INHIBITORY EFFECT ON HRAS AND NRAS” (CHUGAI SEIYAKU KABUSHIKI KAISHA, priority 2022, published 2025).

Experiments:
[1] = test system: human lung cancer strain NCI-H441; assay: cells; conditions: NCI-H441, 96 h, read-out: NCI-H441 IC50 (nM)
[2] = target: GDP-bound NRAS wild-type protein (Homo sapiens, UniProt P01111); assay: Binding to NRAS by surface plasmon resonance (SPR), Single Cycle Kinetics; conditions: SPR; KD ratio class
Chain of GDP-bound NRAS wild-type protein (P01111 whole entry): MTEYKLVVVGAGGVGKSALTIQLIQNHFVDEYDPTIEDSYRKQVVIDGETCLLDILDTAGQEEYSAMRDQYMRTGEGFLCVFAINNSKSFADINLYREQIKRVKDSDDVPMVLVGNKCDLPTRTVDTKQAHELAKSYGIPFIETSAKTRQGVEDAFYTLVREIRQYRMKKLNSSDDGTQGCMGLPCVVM

[3] = target: GDP-bound HRAS wild-type protein (Homo sapiens, UniProt P01112); assay: Binding to HRAS by surface plasmon resonance (SPR), Single Cycle Kinetics; conditions: SPR; KD ratio class
Chain of GDP-bound HRAS wild-type protein (P01112 whole entry): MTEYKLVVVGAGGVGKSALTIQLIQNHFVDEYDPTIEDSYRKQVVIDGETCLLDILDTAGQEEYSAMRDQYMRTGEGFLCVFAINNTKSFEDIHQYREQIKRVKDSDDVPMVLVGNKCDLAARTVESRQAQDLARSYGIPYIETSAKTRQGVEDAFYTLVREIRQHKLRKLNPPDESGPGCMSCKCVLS

SMILES	IC50 [1] [nM]	NRAS/KRAS (ratio of KD value for GDP-bound NRAS wild-type protein to KD value for KRAS) [2]	HRAS/KRAS (ratio of KD value for GDP-bound HRAS wild-type protein to KD value for KRAS) [3]
CCO[C@@H]1C[C@H]2C(=O)NC3(CCC3)C(=O)N(C)[C@@H](C3CCCC3)C(=O)N(C)[C@H](C(=O)N(C)C)CC(=O)N(C)[C@@H](CC3CCCC3)C(=O)N[C@@H]([C@@H](C)CC)C(=O)N(C)CC(=O)N(C)[C@H]3C/C=C\CCN(C3=O)[C@@H](Cc3ccc(F)cc3)C(=O)N(C)CC(=O)N[C@@H](CCc3ccc4sccc4c3)C(=O)N2C1 [PP1390]	305	A (a compound having 10 or more and less than 20 is denoted as A)	A (a compound having 10 or more and less than 20 is denoted as A)
CCO[C@@H]1C[C@H]2C(=O)NC3(CCC3)C(=O)N(C)[C@@H](C3CCCC3)C(=O)N(C)[C@H](C(=O)N3CCCC3)CC(=O)N(C)[C@@H](CC3CCCC3)C(=O)N[C@@H]([C@@H](C)CC)C(=O)N(C)CC(=O)N(C)[C@H]3C/C=C\CCN(C3=O)[C@@H](Cc3ccc(F)cc3)C(=O)N(C)CC(=O)N[C@@H](CCc3ccc4sccc4c3)C(=O)N2C1 [PP1391]	271	A (a compound having 10 or more and less than 20 is denoted as A)	A (a compound having 10 or more and less than 20 is denoted as A)
CCO[C@@H]1C[C@H]2C(=O)NC3(CCC3)C(=O)N(C)[C@@H](C3CCCC3)C(=O)N(C)[C@H](C(=O)N3CCOCC3)CC(=O)N(C)[C@@H](CC3CCCC3)C(=O)N[C@@H]([C@@H](C)CC)C(=O)N(C)CC(=O)N(C)[C@H]3C/C=C\CCN(C3=O)[C@@H](Cc3ccc(C(F)(F)F)cc3)C(=O)N(C)CC(=O)N[C@@H](CCc3cc(F)c(C(F)(F)F)c(F)c3)C(=O)N2C1 [PP1393]	18.2	A (a compound having 10 or more and less than 20 is denoted as A)	A (a compound having 10 or more and less than 20 is denoted as A)
CCO[C@@H]1C[C@H]2C(=O)NC3(CCC3)C(=O)N(C)[C@@H](C3CCCC3)C(=O)N(C)[C@H](C(=O)N3CCOCC3)CC(=O)N(C)[C@@H](CC3CCCC3)C(=O)N[C@@H]([C@@H](C)CC)C(=O)N(C)CC(=O)N(C)[C@H]3C/C=C\CCN(C3=O)[C@@H](Cc3ccc(C)cc3)C(=O)N(C)CC(=O)N[C@@H](CCc3cc(F)c(C(F)(F)F)c(F)c3)C(=O)N2C1 [PP1394]	25.1	AA (a compound having 20 or more is denoted as AA)	A (a compound having 10 or more and less than 20 is denoted as A)
CCCOC[C@H]1C(=O)N[C@@H]([C@@H](C)CC)C(=O)N(C)CC(=O)N(C)[C@H]2C/C=C\CCN(C2=O)[C@@H](Cc2ccc(C(F)(F)F)cc2)C(=O)N(C)CC(=O)N[C@@H](CCc2cc(F)c(C(F)(F)F)c(F)c2)C(=O)N2C[C@H](OCC)C[C@H]2C(=O)NC2(CCCC2)C(=O)N(C)[C@@H](C2CCCC2)C(=O)N(C)[C@H](C(=O)N2CCCC2)CC(=O)N1C [PP1399]	18.8	A (a compound having 10 or more and less than 20 is denoted as A)	A (a compound having 10 or more and less than 20 is denoted as A)
CCCOC[C@H]1C(=O)N[C@@H]([C@@H](C)CC)C(=O)N(C)CC(=O)N(C)[C@H]2C/C=C\CCN(C2=O)[C@@H](Cc2ccc(C)cc2)C(=O)N(C)CC(=O)N[C@@H](CCc2cc(F)c(C(F)(F)F)c(F)c2)C(=O)N2C[C@H](OCC)C[C@H]2C(=O)NC2(CCCC2)C(=O)N(C)[C@@H](C2CCCC2)C(=O)N(C)[C@H](C(=O)N2CCCC2)CC(=O)N1C [PP1401]	34.4	A (a compound having 10 or more and less than 20 is denoted as A)	A (a compound having 10 or more and less than 20 is denoted as A)

Stronger by IC50 [1], values ahead:

IC50 [1] [nM]	SMILES	NRAS/KRAS (ratio of KD value for GDP-bound NRAS wild-type protein to KD value for KRAS) [2]	HRAS/KRAS (ratio of KD value for GDP-bound HRAS wild-type protein to KD value for KRAS) [3]
3.5	CCO[C@@H]1C[C@H]2C(=O)NC3(CCCC3)C(=O)N(C)[C@@H](C3CCCC3)C(=O)N(C)[C@H](C(=O)N(C)C)CC(=O)N(C)[C@@H](CC)C(=O)N[C@@H]([C@@H](C)CC)C(=O)N(C)CC(=O)N(C)[C@H]3CC[C@@H](C)CN(C3=O)[C@@H](Cc3ccc(C(F)(F)F)cc3)C(=O)N(C)CC(=O)N[C@@H](CCc3ccc(C(F)(F)F)c(Cl)c3)C(=O)N2C1 [PP1376]	B (a compound having 3 or more and less than 10 is denoted as B)	B (a compound having 3 or more and less than 10 is denoted as B)
5.8	CCO[C@@H]1C[C@H]2C(=O)NC3(CCCC3)C(=O)N(C)[C@@H](C3CCCC3)C(=O)N(C)[C@H](C(=O)N3CCOCC3)CC(=O)N(C)[C@@H](CC)C(=O)N[C@@H]([C@@H](C)CC)C(=O)N(C)CC(=O)N(C)[C@H]3CC[C@@H](C)CN(C3=O)[C@@H](Cc3ccc(C(F)(F)F)cc3)C(=O)N(C)CC(=O)N[C@@H](CCc3ccc(C(F)(F)F)c(Cl)c3)C(=O)N2C1 [PP1377]	B (a compound having 3 or more and less than 10 is denoted as B)	B (a compound having 3 or more and less than 10 is denoted as B)
6.6	CCO[C@@H]1C[C@H]2C(=O)NC3(CCC3)C(=O)N(C)[C@@H](C3CCCC3)C(=O)N(C)[C@H](C(=O)N3CCOCC3)CC(=O)N(C)[C@@H](CC)C(=O)N[C@@H]([C@@H](C)CC)C(=O)N(C)CC(=O)N(C)[C@H]3CC[C@@H](C)CN(C3=O)[C@@H](Cc3ccc(C(F)(F)F)cc3)C(=O)N(C)CC(=O)N[C@@H](CCc3ccc(C(F)(F)F)c(Cl)c3)C(=O)N2C1 [PP1378]	B (a compound having 3 or more and less than 10 is denoted as B)	C (A compound having a KD ratio of 0.1 or more and less than 3 is denoted as C)
10.3	CCO[C@@H]1C[C@H]2C(=O)NC3(CCC3)C(=O)N(C)[C@@H](C3CCCC3)C(=O)N(C)[C@H](C(=O)N3CCOCC3)CC(=O)N(C)[C@@H](CC(C)C)C(=O)N[C@@H]([C@@H](C)CC)C(=O)N3CC[C@H]3C(=O)N(C)[C@H]3CC[C@@H](C)CN(C3=O)[C@@H](Cc3ccc(C(F)(F)F)cc3)C(=O)N(C)CC(=O)N[C@@H](CCc3ccc(C(F)(F)F)c(Cl)c3)C(=O)N2C1 [PP1379]	A (a compound having 10 or more and less than 20 is denoted as A)	B (a compound having 3 or more and less than 10 is denoted as B)
15.8	CC[C@H](C)[C@@H]1NC(=O)[C@H](CC)N(C)C(=O)C[C@@H](C(=O)N(C)C)N(C)C(=O)[C@H](C2CCCC2)N(C)C(=O)C2(CCCC2)NC(=O)[C@@H]2CCCN2C(=O)[C@H](CCc2cc(F)c(C(F)(F)F)c(F)c2)NC(=O)CN(C)C(=O)[C@H](Cc2ccc(C(F)(F)F)cc2)N2C[C@H](C)CC[C@@H](C2=O)N(C)C(=O)CN(C)C1=O [PP1382]	B (a compound having 3 or more and less than 10 is denoted as B)	B (a compound having 3 or more and less than 10 is denoted as B)
11.2	CC[C@H](C)[C@@H]1NC(=O)[C@H](CC)N(C)C(=O)C[C@@H](C(=O)N2CCOCC2)N(C)C(=O)[C@H](C2CCCC2)N(C)C(=O)C2(CCCC2)NC(=O)[C@@H]2CCCN2C(=O)[C@H](CCc2cc(F)c(C(F)(F)F)c(F)c2)NC(=O)CN(C)C(=O)[C@H](Cc2ccc(C(F)(F)F)cc2)N2C[C@H](C)CC[C@@H](C2=O)N(C)C(=O)CN(C)C1=O [PP1383]	B (a compound having 3 or more and less than 10 is denoted as B)	B (a compound having 3 or more and less than 10 is denoted as B)
13.5	CC[C@H](C)[C@@H]1NC(=O)[C@H](CC)N(C)C(=O)C[C@@H](C(=O)N2CCOCC2)N(C)C(=O)[C@H](C2CCCC2)N(C)C(=O)C2(CCC2)NC(=O)[C@@H]2CCCN2C(=O)[C@H](CCc2cc(F)c(C(F)(F)F)c(F)c2)NC(=O)CN(C)C(=O)[C@H](Cc2ccc(C(F)(F)F)cc2)N2C[C@H](C)CC[C@@H](C2=O)N(C)C(=O)CN(C)C1=O [PP1384]	A (a compound having 10 or more and less than 20 is denoted as A)	B (a compound having 3 or more and less than 10 is denoted as B)
4.2	CC[C@H](C)[C@@H]1NC(=O)[C@H](CC2CCC2)N(C)C(=O)C[C@@H](C(=O)N(C)C)N(C)C(=O)[C@H](C2CCCC2)N(C)C(=O)C2(CCCC2)NC(=O)[C@@H]2CCCN2C(=O)[C@H](CCc2cc(F)c(C(F)(F)F)c(F)c2)NC(=O)CN(C)C(=O)[C@H](Cc2ccc(C(F)(F)F)cc2)N2C[C@H](C)CC[C@@H](C2=O)N(C)C(=O)CN(C)C1=O [PP1386]	B (a compound having 3 or more and less than 10 is denoted as B)	B (a compound having 3 or more and less than 10 is denoted as B)
